Results reported in publication PMC7932537, “Quantitative profiling of protease specificity” (PLoS Computational Biology, 2021).

Tested on: MMP-2
Assay: Substrate phage display with NGS: relative probability (RP) of P3-P1' tetramer clusters
Assay type: biochemical, human
Details: MMP2 - no binning; average relative probability (RP) of the P3-P1' tetramer; redundant tetramers have been averaged out

Substance | avg_RP
ADLI | 0.5875
AENL | 6.7504
AFHI | 0.4414
AFHL | 8.795
AFSL | 10.3321
AFTM | 0
AGHL | 15.0568
AGRL | 3.4801
AHAL | 27.1646
AHHL | 16.717
AHPL | 24.4555
AKHL | 9.4662
AKML | 2.8249
AKPL | 20.8275
ALAM | 20.8553
ALDL | 2.4602
ALDM | 0.2655
ALGL | 26.3282
ALNM | 13.7479
ALPM | 15.3537
ALWL | 7.2418
ANMI | 1.6014
ANSI | 0.424

Substance | avg_RP
ANYI | 1.6587
AQEL | 0.1876
AQHI | 7.3783
AQHL | 16.6778
AQMI | 2.3525
ASRL | 6.8948
AWAL | 14.3616
AWHL | 5.5662
AWMM | 1.3213
AWNM | 2.0017
FATL | 9.1497
FQWL | 13.3419
GAKL | 0.1271
GAWL | 11.7256
GDRL | 0
GFAL | 0.4341
GHNL | 0.2721
GHRL | 0.0505
GLHL | 0.1267
GMAL | 1.3132
GNFL | 0.2435
GQGL | 0.1555
GRPL | 5.2852

Substance | avg_RP
GWDL | 0
GWRL | 0.1031
HLNI | 0.0853
HMAL | 5.2214
HMHM | 0
HQSL | 10.5998
HQWL | 19.2059
HRSI | 0.1819
IASL | 32.8949
IDLL | 0.1325
ILHL | 15.3505
INFL | 7.787
INQL | 1.5518
IRHL | 22.5548
IRWL | 25.5858
IWAL | 5.7953
IYGL | 9.4242
LAQI | 17.7137
LARL | 21.3172
LFHL | 2.7376
LLHL | 16.5808
LMAL | 15.4189

Same assay, conditions: MMP2 - no binning; average relative probability of the P3-P1' tetramer; redundant tetramers have been averaged out

Substance | avg_RP
AFNL | 16.2959
AGAL | 19.769
AHLL | 1.4368
AHQL | 4.1004
AHSL | 21.0212
AISM | 11.4166
ALAL | 22.1184
ALHL | 14.6488
ALNL | 17.2813
AMNI | 4.1669
AMNL | 16.2852
AMRM | 0.1716
ANYL | 3.9008
AQAL | 22.7358
AQDL | 0.5121
AQML | 8.608
AQNL | 19.4627
AQPL | 14.4283
AQSL | 18.365
AQYL | 7.443
ARAW | 17.4628
ARFL | 8.5771

Substance | avg_RP
ARML | 2.9901
ARQL | 3.2139
ARSL | 17.186
ARSM | 12.2991
ARWL | 19.0362
ASAL | 28.9092
ASFL | 10.8605
ASGL | 25.6721
ASHM | 12.3873
ASNL | 28.7368
AVAL | 27.4369
AWGL | 17.7408
AWYL | 0.0964
AYHM | 3.7603
AYNL | 20.8713
AYNM | 10.8408
FAAL | 18.8584
FEHL | 1.2103
FGNL | 26.0275
FLHL | 0.8093
FLHM | 0.2069
FLHW | 0.0579

Substance | avg_RP
FQSL | 13.5551
FRGL | 7.4752
FRML | 0.2112
FRNL | 9.8211
FRSM | 5.3885
FSEL | 12.1057
FSHM | 11.0227
FSNL | 24
FSQL | 9.0646
FWHL | 0
GAAL | 15.7207
GANL | 13.1428
GASL | 9.5377
GFQL | 0.0467
GFSL | 0.0975
GLAL | 0.6848
GLEL | 0
GLNL | 0.5789
GMNM | 0
GMRL | 0
GNRL | 0.0463
GNSL | 0.2884

Substance | avg_RP
GQHL | 1.1642
GWAL | 0.0916
GYSL | 0.0471
HMRL | 0.0574
HQNL | 17.7487
HYSL | 0.1694
IAHL | 32.9345
IAYL | 27.9862
IESM | 2.7483
IFRL | 0.1412
IGNF | 24.8743
IHFL | 4.5373
INML | 5.8285
IQSL | 25.2682
IQTM | 7.1082
ISFM | 23.3965
ISHL | 30.7015
ISYM | 22.3091
IWKL | 0.0593
IYAL | 6.9669
IYEL | 0.2382
IYNL | 11.935

Substance | avg_RP
LAAM [P3-P1' tetramer cluster] | 30.6825
LAHI | 25.9365
LAHV | 11.7405
LAKL | 21.2737
LANL | 34.4823
LASL [P3-P1' tetramer cluster] | 31.1996
LASQ | 21.0724
LDLL | 0.0715
LDWM | 7.0331
LGCL | 12.7261
LGHL [P3-P1' tetramer cluster] | 31.1653
LGML | 29.0922
LGMM | 22.231
LGTL | 24.6198
LHSL | 18.7402
LKHL | 11.1441
LLDL | 0.3542
LLNM | 13.7728

Same assay, conditions: MMP2 - no binning; average relative probability of the tetramer; redundant tetramers averaged out

Substance | avg_RP
AHGI | 8.8809
AHGL | 23.6336
AIHL | 13.4941
AIPL | 24.8904
ALGI | 18.2164
ALNF | 9.2594
ALPL | 22.1772
AMGL | 23.7576
ANAL | 20.3526
ANNL | 18.8719
ANSL | 10.0738
ARAM | 25.2992
ARGL | 25.9476
ARKL | 0
ARLL | 1.104
ARNL | 24.6947
ARPL | 27.8706
ASHL | 19.8208
ATAL | 22.9481
AVAI | 20.993
AWNL | 14.0049

Substance | avg_RP
AWSL | 7.006
AYHL | 15.3364
AYNF | 6.7246
AYSL | 18.7071
FAHL | 19.6504
FGAL | 25.0961
FRHL | 3.942
FSHL | 16.5216
GAHL | 8.4636
GLYL | 0.0762
GRAL | 7.9443
GRAM | 2.5449
GRHL | 3.5979
GRNL | 8.8117
GSGL | 1.9698
GSHL | 4.2785
GYAL | 0.5867
GYHL | 0.0815
HAHL | 20.0775
HAWM | 17.1047
HFHL | 0.0941

Substance | avg_RP
HLAL | 11.3603
HRSL | 7.8508
IAAM | 28.6184
IALL | 16.3586
IATL | 24.2778
IEYL | 5.366
IGEI | 19.2988
INAL | 12.2423
IRFL | 12.1004
IRML | 12.7446
IRYL | 17.8741
ISAL | 31.8319
ISNW | 26.0602
ISWM | 28.3587
IWSL | 5.404
LAAI | 28.8382
LAAW | 24.7038
LGNL | 33.3542
LGYL | 24.8925
LLAM | 10.8556
LLSL | 2.0177

Same assay, conditions: MMP2; RP of matching P3-P1' tetramer; common set of MMP2-9 selectome; RP above KL threshold

Substance | relative probability (RP) (acc.to MMP2)
AGSL | 14.97

Same assay, conditions: P3-P1' tetramer matching the MS detected MMP2 cleavage sequence; RP_above_4.5

Substance | relative probability (RP) of matching tetramer
AGSL | 14.97

Same assay, conditions: tetramer annotation of MMP-2 cleavage sites in all substrates from MEROPS

Substance | relative probability (RP)
AAEL | 15.51
AAGL | 29.36

Same assay, conditions: tetramer annotation of MMP-2 cleavage sites in physiologic substrates from MEROPS

Substance | relative probability (RP)
FAPG | 0.08
FSRI | 0.35

Same assay, conditions: tetramer clusters unique to the MMP-2 selectome, MMP-2 RP

Substance | relative_probability
HANL [P3-P1' tetramer cluster] | 30.86
IAAI [P3-P1' tetramer cluster] | 29.40
IGQL [P3-P1' tetramer cluster] | 30.24
LAAM [P3-P1' tetramer cluster] | 30.68
LANI [P3-P1' tetramer cluster] | 29.81
LANW [P3-P1' tetramer cluster] | 29.93
LASL [P3-P1' tetramer cluster] | 31.20
LGAM [P3-P1' tetramer cluster] | 29.74
LGEL [P3-P1' tetramer cluster] | 29.44
LGHL [P3-P1' tetramer cluster] | 31.17
LGNM [P3-P1' tetramer cluster] | 29.28
